The target in one experiment is T1, Adrenergic α2A (Homo sapiens, UniProt P08913).
T1 sequence (P08913 1-465): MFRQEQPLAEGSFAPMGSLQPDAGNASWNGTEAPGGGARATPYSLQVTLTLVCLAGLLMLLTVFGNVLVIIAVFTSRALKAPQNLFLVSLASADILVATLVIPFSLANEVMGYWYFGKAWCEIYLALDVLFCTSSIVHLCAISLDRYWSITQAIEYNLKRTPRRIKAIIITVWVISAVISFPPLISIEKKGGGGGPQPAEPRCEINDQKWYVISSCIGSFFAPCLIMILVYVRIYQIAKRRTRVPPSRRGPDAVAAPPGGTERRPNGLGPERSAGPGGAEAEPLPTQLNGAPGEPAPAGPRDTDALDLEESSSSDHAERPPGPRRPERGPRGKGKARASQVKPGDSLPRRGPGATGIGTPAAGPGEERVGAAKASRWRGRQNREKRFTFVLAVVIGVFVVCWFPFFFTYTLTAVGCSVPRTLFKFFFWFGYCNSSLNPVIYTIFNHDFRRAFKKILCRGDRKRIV
Briefly: competitive radioligand binding, Adrenergic α2A. The conditions noted are these: read-out: radio-labelled ligand displacement, Adrenergic α2A. Summed up: (§1)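 Competition binding with radio-labelled ligand; test compound at 1 μM.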

The target in another experiment is T2, Dopaminergic D4.2 (Homo sapiens, UniProt P21917, DEL265-296).
T2 sequence (P21917 with tags, fused parts or gaps DEL265-296): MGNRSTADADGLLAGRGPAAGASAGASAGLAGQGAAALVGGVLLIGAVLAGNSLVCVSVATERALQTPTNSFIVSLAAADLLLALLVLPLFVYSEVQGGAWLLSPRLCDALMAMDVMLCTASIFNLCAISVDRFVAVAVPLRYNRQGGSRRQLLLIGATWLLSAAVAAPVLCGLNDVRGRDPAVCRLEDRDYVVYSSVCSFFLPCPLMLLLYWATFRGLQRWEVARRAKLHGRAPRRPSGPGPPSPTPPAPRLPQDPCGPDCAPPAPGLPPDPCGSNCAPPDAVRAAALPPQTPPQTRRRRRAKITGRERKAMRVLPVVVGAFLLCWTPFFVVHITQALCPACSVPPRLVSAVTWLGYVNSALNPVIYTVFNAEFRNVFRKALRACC
Briefly: competitive radioligand binding, Dopaminergic D4.2. The conditions noted are these: compound concentration of 1 μM; read-out: radio-labelled ligand displacement, Dopaminergic D4.2. Summed up:
as §1

Another experiment deals with Dopaminergic D2S (Homo sapiens, UniProt P14416). Briefly: competitive radioligand binding, Dopaminergic D2S. The conditions noted are these: compound concentration of 1 μM; read-out: radio-labelled ligand displacement, Dopaminergic D2S. The essentials: as §1
Chain of Dopaminergic D2S (P14416 1-414 isoform P14416-2): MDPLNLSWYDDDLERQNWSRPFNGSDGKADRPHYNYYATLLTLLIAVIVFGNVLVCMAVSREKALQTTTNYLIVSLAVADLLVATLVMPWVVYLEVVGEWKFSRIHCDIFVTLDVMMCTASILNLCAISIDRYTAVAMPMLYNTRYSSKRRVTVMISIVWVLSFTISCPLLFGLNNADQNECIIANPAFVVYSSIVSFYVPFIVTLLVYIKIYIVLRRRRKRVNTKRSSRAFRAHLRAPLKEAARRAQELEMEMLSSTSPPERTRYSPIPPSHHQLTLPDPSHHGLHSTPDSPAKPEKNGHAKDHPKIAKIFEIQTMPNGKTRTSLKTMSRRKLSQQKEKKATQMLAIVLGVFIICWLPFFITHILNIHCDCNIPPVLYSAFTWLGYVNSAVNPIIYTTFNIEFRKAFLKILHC
The target in the next experiment is Dopaminergic D3 (Homo sapiens, UniProt P35462). Briefly: competitive radioligand binding, Dopaminergic D3. The conditions noted are these: compound concentration of 1 μM; read-out: radio-labelled ligand displacement, Dopaminergic D3. The essentials:
as §1

A further experiment concerns the target T3, Serotoninergic 5-HT2C (Homo sapiens, UniProt P28335).
T3 sequence (P28335 33-458): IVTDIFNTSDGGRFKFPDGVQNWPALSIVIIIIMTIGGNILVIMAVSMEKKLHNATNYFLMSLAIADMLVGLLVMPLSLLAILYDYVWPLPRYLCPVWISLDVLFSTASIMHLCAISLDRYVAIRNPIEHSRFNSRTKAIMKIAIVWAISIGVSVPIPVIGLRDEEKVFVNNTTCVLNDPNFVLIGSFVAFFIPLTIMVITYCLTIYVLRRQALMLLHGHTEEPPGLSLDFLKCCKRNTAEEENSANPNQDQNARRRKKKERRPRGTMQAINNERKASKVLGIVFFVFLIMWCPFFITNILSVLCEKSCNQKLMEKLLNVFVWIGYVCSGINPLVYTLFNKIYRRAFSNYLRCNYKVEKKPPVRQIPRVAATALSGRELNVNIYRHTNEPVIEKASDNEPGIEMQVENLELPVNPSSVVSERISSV
Briefly: competitive radioligand binding, Serotoninergic 5-HT2C. The conditions noted are these: read-out: radio-labelled ligand displacement, Serotoninergic 5-HT2C. Summed up: as §1

A further experiment concerns the target Serotoninergic 5-HT2A (Homo sapiens, UniProt P28223). Briefly: competitive radioligand binding, Serotoninergic 5-HT2A. The conditions noted are these: read-out: radio-labelled ligand displacement, Serotoninergic 5-HT2A. The essentials:
as §1

For the next experiment, the target named is T4, Serotoninergic 5-HT1A (Homo sapiens, UniProt P08908).
T4 sequence (P08908 1-422): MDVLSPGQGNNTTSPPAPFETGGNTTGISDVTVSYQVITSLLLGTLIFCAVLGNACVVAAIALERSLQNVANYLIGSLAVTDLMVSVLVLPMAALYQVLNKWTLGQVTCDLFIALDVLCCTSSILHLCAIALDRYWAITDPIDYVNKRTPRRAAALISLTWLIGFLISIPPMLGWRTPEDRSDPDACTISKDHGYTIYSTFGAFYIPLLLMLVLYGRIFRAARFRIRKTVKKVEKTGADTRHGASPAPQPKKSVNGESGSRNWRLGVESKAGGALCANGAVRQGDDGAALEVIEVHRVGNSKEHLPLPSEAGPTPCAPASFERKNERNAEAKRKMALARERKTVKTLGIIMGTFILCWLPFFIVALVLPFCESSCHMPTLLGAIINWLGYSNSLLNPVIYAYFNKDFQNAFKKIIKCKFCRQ
Briefly: competitive radioligand binding, Serotoninergic 5-HT1A. The conditions noted are these: compound concentration of 1 μM; read-out: radio-labelled ligand displacement, Serotoninergic 5-HT1A. Summed up: as §1

The subject of the next experiment is Adrenergic α1A. Briefly: competitive radioligand binding, Adrenergic α1A. The conditions noted are these: compound concentration of 1 μM. Summed up:
as §1

Another experiment concerns the target Dopaminergic D2L (Homo sapiens, UniProt P14416). Briefly: competitive radioligand binding, Dopaminergic D2L. The conditions noted are these: compound concentration of 1 μM; read-out: radio-labelled ligand displacement, Dopaminergic D2L. The essentials:
as §1

The next experiment has as its target Histaminergic H1 (Homo sapiens, UniProt P35367). Briefly: competitive radioligand binding, Histaminergic H1. The conditions noted are these: compound concentration of 1 μM; read-out: radio-labelled ligand displacement, Histaminergic H1. Summed up: as §1
Another experiment addresses Histaminergic H2 (Homo sapiens, UniProt P25021). Briefly: competitive radioligand binding, Histaminergic H2. The conditions noted are these: compound concentration of 1 μM; read-out: radio-labelled ligand displacement, Histaminergic H2. The essentials:
as §1

The next experiment has as its system Serotoninergic 5-HT1B. Briefly: competitive radioligand binding, Serotoninergic 5-HT1B. The conditions noted are these: compound concentration of 1 μM. Summed up:
as §1

Chain of Dopaminergic D3 (P35462 whole entry): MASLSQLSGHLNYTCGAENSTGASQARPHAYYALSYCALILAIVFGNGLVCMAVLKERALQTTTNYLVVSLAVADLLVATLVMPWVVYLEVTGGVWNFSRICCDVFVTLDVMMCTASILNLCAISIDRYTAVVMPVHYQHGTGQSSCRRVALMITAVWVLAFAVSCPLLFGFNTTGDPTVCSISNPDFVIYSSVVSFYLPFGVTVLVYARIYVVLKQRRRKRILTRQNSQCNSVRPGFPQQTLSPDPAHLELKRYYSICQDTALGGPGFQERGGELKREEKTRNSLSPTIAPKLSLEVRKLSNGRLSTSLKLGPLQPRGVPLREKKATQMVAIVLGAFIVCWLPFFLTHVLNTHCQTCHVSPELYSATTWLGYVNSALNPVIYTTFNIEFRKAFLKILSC
Chain of Histaminergic H1 (P35367 whole entry): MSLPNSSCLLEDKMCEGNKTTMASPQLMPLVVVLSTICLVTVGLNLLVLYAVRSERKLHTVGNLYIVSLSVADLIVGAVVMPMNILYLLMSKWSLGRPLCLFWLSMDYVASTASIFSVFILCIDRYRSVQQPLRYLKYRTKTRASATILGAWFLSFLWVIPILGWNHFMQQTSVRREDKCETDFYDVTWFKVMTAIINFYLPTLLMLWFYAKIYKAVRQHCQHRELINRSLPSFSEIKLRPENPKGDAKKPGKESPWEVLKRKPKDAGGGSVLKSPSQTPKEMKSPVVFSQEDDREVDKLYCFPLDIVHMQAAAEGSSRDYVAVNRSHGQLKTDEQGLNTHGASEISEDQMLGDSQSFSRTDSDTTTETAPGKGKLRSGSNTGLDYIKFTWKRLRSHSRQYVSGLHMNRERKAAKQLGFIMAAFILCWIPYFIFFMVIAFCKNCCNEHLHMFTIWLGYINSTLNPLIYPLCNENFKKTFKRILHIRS
Chain of Serotoninergic 5-HT2A (P28223 whole entry): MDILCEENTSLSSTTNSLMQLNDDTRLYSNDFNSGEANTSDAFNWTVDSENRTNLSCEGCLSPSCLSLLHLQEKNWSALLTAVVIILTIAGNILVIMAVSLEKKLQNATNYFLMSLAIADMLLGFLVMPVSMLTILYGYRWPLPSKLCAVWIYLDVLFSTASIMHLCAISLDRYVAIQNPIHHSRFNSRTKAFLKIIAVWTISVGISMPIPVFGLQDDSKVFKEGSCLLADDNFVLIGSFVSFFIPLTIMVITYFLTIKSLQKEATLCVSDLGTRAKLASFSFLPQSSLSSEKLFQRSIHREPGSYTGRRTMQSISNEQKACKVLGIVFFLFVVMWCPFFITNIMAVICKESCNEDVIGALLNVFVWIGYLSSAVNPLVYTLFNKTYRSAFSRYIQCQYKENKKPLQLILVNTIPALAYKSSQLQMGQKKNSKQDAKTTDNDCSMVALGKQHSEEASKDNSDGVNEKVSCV
Chain of Histaminergic H2 (P25021 whole entry): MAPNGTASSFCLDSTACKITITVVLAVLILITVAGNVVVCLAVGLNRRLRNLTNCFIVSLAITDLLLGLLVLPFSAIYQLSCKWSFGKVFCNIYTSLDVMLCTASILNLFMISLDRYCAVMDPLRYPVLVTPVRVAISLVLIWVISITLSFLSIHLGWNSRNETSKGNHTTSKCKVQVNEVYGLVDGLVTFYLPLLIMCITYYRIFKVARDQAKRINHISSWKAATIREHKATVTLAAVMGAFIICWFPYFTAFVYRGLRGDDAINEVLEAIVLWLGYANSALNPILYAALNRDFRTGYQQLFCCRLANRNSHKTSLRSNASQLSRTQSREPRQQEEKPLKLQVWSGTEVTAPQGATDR
Chain of Dopaminergic D2L (P14416 whole entry): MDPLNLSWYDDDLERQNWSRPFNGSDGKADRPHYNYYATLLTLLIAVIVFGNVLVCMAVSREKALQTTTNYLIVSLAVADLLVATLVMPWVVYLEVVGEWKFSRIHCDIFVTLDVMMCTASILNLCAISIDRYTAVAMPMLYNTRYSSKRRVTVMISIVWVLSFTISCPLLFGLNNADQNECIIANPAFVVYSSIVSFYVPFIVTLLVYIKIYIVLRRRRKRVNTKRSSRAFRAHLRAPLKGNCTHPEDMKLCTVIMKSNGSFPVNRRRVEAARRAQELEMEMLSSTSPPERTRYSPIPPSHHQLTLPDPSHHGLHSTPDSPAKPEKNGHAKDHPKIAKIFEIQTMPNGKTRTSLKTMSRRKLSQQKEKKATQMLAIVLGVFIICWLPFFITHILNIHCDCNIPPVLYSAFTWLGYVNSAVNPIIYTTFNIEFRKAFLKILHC

`Cc1cc2c3c(n(CCc4ccccc4)c2s1)CCN(C)C3.Cl` [3.6(1)•HCl, 2,5-Dimethyl-8-(2-phenylethyl)-5,6,7,8-tetrahydro-4H-thieno[3′,2′:4,5]pyrrolo[3,2-c]pyridine hydrochloride]: the inhibition at 1 µM came out at 100% at Adrenergic α2A; 71% at Dopaminergic D4.2; 86% on Dopaminergic D2S; 73% at Dopaminergic D3; 99% at Serotoninergic 5-HT2C; 101% at Serotoninergic 5-HT2A. The inhibition at 1 µM at Serotoninergic 5-HT1A came out at 48%; at Dopaminergic D2L, 87%; on Histaminergic H1 it was 98%; on Histaminergic H2, 96%. In addition, the radio-labelled ligand displacement, Adrenergic α1A with Adrenergic α1A worked out at 97%. The radio-labelled ligand displacement, Serotoninergic 5-HT1B with Serotoninergic 5-HT1B stood at 47%.
Take `Cc1cc2c(s1)c1c(n2CCc2ccccc2)CCN(C)C1.Cl` [2.6(1)•HCl, 2,7-Dimethyl-4-(2-phenylethyl)-5,6,7,8-tetrahydro-4H-thieno[2′,3′:4,5]pyrrolo[3,2-c]pyridine hydrochloride]: the inhibition at 1 µM at Adrenergic α2A stood at 80%; on Dopaminergic D4.2, 14%; at Dopaminergic D2S it was 73%; on Dopaminergic D3, 62%; on Serotoninergic 5-HT2C it was 89%; at Serotoninergic 5-HT2A it was 99%. The inhibition at 1 µM on Serotoninergic 5-HT1A was determined as 16%; on Dopaminergic D2L, 76%; at Histaminergic H1, 97%; on Histaminergic H2, 56%. This compound also showed a radio-labelled ligand displacement, Adrenergic α1A with Adrenergic α1A of 83%. For the same compound, the radio-labelled ligand displacement, Serotoninergic 5-HT1B in the experiment with Serotoninergic 5-HT1B came to 18%.

For the origin of these results see patent publication US20130267551A1, “SUBSTITUTED HYDROGENATED THIENO-PYRROLO[3,2-C]PYRIDINE, LIGANDS, A PHARMACEUTICAL COMPOSITION AND A METHOD FOR USING THE ABOVE” (ALLA CHEM, LLC, priority 2010, published 2013).
